{"source": "patent US6294535A", "about": "“Uracil derivatives and antitumor effect potentiator and antitumor agent containing the same” (Taiho Pharmaceutical Co., Ltd., priority 1995, dated 2001)", "key": {"[1]": {"system": "thymidine phosphorylase", "details": "reported to date; cited from earlier work"}, "[2]": {"details": "antitumor; cited from earlier work"}, "[3]": {"system": "S-180 cells", "details": "oral, once a day for 7 days"}, "[4]": {"molecular_target": "T1, thymidine phosphorylase obtained from human placenta (Homo sapiens, UniProt P19971)", "T1 construct": "thymidine phosphorylase obtained from human placenta in a highly purified form; from tissue; host or cells: human placenta", "T1 sequence (P19971 11-482)": "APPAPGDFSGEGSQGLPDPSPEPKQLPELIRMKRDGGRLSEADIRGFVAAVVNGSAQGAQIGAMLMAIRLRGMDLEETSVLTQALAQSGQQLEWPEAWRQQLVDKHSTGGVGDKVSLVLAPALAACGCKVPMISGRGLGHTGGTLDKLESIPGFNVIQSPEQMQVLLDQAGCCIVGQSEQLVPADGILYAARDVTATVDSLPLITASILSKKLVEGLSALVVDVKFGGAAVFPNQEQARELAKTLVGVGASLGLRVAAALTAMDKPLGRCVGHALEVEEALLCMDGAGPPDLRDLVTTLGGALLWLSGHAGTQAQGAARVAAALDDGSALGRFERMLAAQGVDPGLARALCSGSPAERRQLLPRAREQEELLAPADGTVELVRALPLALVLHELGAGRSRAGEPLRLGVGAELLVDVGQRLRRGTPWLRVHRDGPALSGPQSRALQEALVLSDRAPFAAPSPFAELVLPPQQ", "experiment": "Test 1: thymidine phosphorylase inhibiting effects (formation of [6-3H]thymine from [6-3H]thymidine)", "type": "biochemical", "details": "37° C., 5 minutes, pH 7.4, 3 mM thymidine solution"}, "[5]": {"system": "herpetic keratitis", "details": "used as an eye drop for herpetic keratitis; cited from earlier work"}, "[6]": {"system": "Nude-mouse-transplanted human tumor"}, "[7]": {"system": "Nude-mouse-transplanted human tumor", "experiment": "Test 4: antitumor effects, therapeutic index of F3 dThd with Compound 2", "type": "in vivo", "details": "oral, once a day for 14 days", "from_the_text": "Test 4 (Antitumor Effects)"}, "[8]": {"system": "Nude-mouse-transplanted human tumor", "experiment": "Test 2: antitumor effects, nude-mouse-transplanted human tumor", "type": "in vivo", "details": "oral, once a day for 14 days"}}, "note": "pIC50: −log10 of the molar value. Read-outs that look alike come from different tables or passages of the source."}
{"molecule": "N#Cc1ccc(O)nc1O", "note": "[3-Cyano-2,6-dihydroxypyridine]", "values": [{"measurement": "inhibitory activities against thymidine phosphorylase", "setting": "[1]", "result": "not sufficient"}]}
{"molecule": "O=c1[nH]c(=O)n([C@H]2C[C@H](O)[C@@H](CO)O2)cc1F", "note": "[FdUrd, 5-Fluoro-2'-deoxyuridine]", "values": [{"measurement": "in vitro activities", "setting": "[2]", "result": "strong in vitro activities"}, {"measurement": "Tumor size reduction rate", "setting": "[3]; 5 mg/kg in terms of FdUrd", "result": 10.5, "unit": "%"}, {"measurement": "Tumor size reduction rate", "setting": "[3]; 10 mg/kg in terms of FdUrd", "result": 24.4, "unit": "%"}]}
{"molecule": "Cc1cn(COCCO)c(=O)[nH]c1=O", "note": "[Acyclothymidine]", "values": [{"measurement": "pIC50", "setting": "[4]", "result": "< 3.00"}, {"measurement": "inhibitory activities against thymidine phosphorylase", "setting": "[1]", "result": "not sufficient"}]}
{"molecule": "O=c1[nH]c(=O)n([C@H]2C[C@H](O)[C@@H](CO)O2)cc1C(F)(F)F", "note": "[F3 dThd, 5-Trifluoromethyl-2'-deoxyuridine]", "values": [{"measurement": "antiviral activities", "setting": "[5]", "result": "has antiviral activities"}, {"measurement": "Therapeutic index BWC-10 /ED50", "setting": "[6]; mouse, in vivo, po", "result": 2.7}, {"measurement": "BWC-10", "setting": "[6]; mouse, in vivo, po, 20160 min", "result": 73.8, "unit": "mg/kg"}, {"measurement": "ED50", "setting": "[6]; oral, once a day for 14 days, 12.5-100 mg/kg in terms of F3 dThd", "result": 26.9, "unit": "mg/kg"}, {"measurement": "BWC-10", "setting": "[7]; body weight change, in terms of F3 dThd", "result": 103, "unit": "mg/kg"}, {"measurement": "Therapeutic index BWC-10 /ED50", "setting": "[7]", "result": 1.7}, {"measurement": "ED50", "setting": "[7]; 12.5-100 mg/kg in terms of F3 dThd", "result": 60.0, "unit": "mg/kg"}, {"measurement": "in vitro activities", "setting": "[2]", "result": "strong in vitro activities"}, {"measurement": "Tumor size reduction rate", "setting": "[8]; 50 mg/kg in terms of F3 dThd", "result": 27, "unit": "%"}, {"measurement": "Tumor size reduction rate", "setting": "[8]; 100 mg/kg in terms of F3 dThd", "result": 50, "unit": "%"}]}
